From the supplement of paper PMC10307832

Legend:
Test in all cases: relative viability (nuclei count vs DMSO), 5 days (fraction); higher = more cells survive
[1] = compound: C(C(=O)C(=O)O)Br [Bromopyruvate] + CS(=O)(=O)N1CCN(Cc2cc3nc(-c4cccc5[nH]ncc45)nc(N4CCOCC4)c3s2)CC1 [Pictilisib] (partner 1 µM)
Outline: (§1)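 Relative viability equals treated-well nuclei counts divided by vehicle-well nuclei counts. Counts came from 4× images of lung cancer cell lines grown in 1536-well plates for 5 days after pin-tool dosing on the day after seeding. Dosing used one drug alone or a fixed anchor-drug dose plus five library-drug doses (not always all listed) in √10 steps, and values are medians of duplicate plates.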

Bicalutamide + OSI-027 = compound: CC(O)(CS(=O)(=O)c1ccc(F)cc1)C(=O)Nc1ccc(C#N)c(C(F)(F)F)c1 [Bicalutamide] + COc1cccc2cc(-c3nc([C@H]4CC[C@H](C(=O)O)CC4)n4ncnc(N)c34)[nH]c12 [OSI-027] (partner 0.5 µM)
Outline: as §1

[2] = compound: C(C(=O)C(=O)O)Br [Bromopyruvate] + CCNC(=O)c1noc(-c2cc(C(C)C)c(O)cc2O)c1-c1ccc(CN2CCOCC2)cc1 [Luminespib] (partner 0.01 µM)
Outline: as §1

Bicalutamide + AZD7762 = compound: CC(O)(CS(=O)(=O)c1ccc(F)cc1)C(=O)Nc1ccc(C#N)c(C(F)(F)F)c1 [Bicalutamide] + NC(=O)Nc1cc(-c2cccc(F)c2)sc1C(=O)N[C@H]1CCCNC1 [AZD7762] (partner 0.2 µM)
Outline: as §1

Row | Cell Line | relative viability ([1]; first compound 1 µM) | relative viability ([1]; first compound 3.162 µM) | relative viability ([1]; first compound 10 µM) | relative viability ([1]; first compound 31.62 µM) | relative viability ([1]; first compound 100 µM) | relative viability (Bicalutamide + OSI-027; first compound 0.08 µM) | relative viability (Bicalutamide + OSI-027; first compound 0.253 µM) | relative viability (Bicalutamide + OSI-027; first compound 0.8 µM) | relative viability (Bicalutamide + OSI-027; first compound 2.53 µM) | relative viability ([2]; first compound 1 µM) | relative viability ([2]; first compound 3.162 µM) | relative viability ([2]; first compound 10 µM) | relative viability ([2]; first compound 31.62 µM) | relative viability ([2]; first compound 100 µM) | relative viability (Bicalutamide + AZD7762; first compound 0.08 µM) | relative viability (Bicalutamide + AZD7762; first compound 0.253 µM) | relative viability (Bicalutamide + AZD7762; first compound 0.8 µM) | relative viability (Bicalutamide + AZD7762; first compound 2.53 µM)
1 | 201T | 0.724 | 0.692 | 0.626 | 0.683 | 0.7 | 0.727 | 0.609 | 0.735 | 0.736 | 1.04 | 1.04 | 1.08 | 1.05 | 1.12 | 0.637 | 0.408 | 0.586 | 0.599
2 | A549 | 0.479 | 0.629 | 0.489 | 0.494 | 0.6 |  |  |  |  |  |  |  |  |  |  |  |  | 
3 | A-427 | 0.678 | 0.809 | 0.483 | 0.746 | 0.718 | 0.489 | 0.479 | 0.584 | 0.398 | 0.763 | 1.04 | 0.918 | 0.971 | 0.817 | 0.807 | 0.677 | 0.855 | 0.583
4 | ABC-1 | 0.573 | 0.881 |  | 0.849 | 0.686 | 0.46 | 0.448 | 0.45 | 0.454 | 0.519 | 0.823 | 0.575 | 0.499 | 0.234 | 0.828 | 0.572 | 1.02 | 0.772
5 | BEN | 0.64 | 0.505 | 0.63 | 0.552 | 0.508 | 0.265 | 0.299 | 0.274 | 0.276 | 0.587 | 0.342 | 0.66 | 0.303 | 0.295 | 0.742 | 0.563 | 0.874 | 0.675
6 | CAL-12T | 0.431 | 0.394 | 0.534 | 0.309 | 0.569 | 0.574 | 0.638 | 0.72 | 0.431 | 0.375 | 0.421 | 0.606 | 0.285 | 0.357 | 0.729 | 0.655 | 0.703 | 0.68
7 | COR-L23 | 0.763 | 0.772 | 0.98 | 0.673 | 0.524 | 0.814 | 0.751 | 0.955 | 0.705 | 0.611 | 0.602 | 0.815 | 0.694 | 0.119 |  |  |  | 
8 | COR-L 105 | 0.524 | 0.371 | 0.361 | 0.434 | 0.379 | 0.644 | 0.555 | 0.614 | 0.572 | 0.775 | 0.827 | 0.925 | 0.692 | 0.552 |  |  |  | 
9 | Calu-6 | 0.898 | 0.958 | 0.966 | 0.743 | 0.829 |  |  |  |  |  |  |  |  |  |  |  |  | 
10 | ChaGo-K-1 | 0.978 | 0.766 | 0.581 | 0.685 | 0.622 | 0.566 | 0.48 | 0.631 | 0.516 | 0.565 | 0.697 | 0.646 | 0.705 | 0.417 | 0.883 | 0.792 | 0.944 | 0.858
11 | EBC-1 | 0.374 | 0.467 | 0.412 | 0.42 | 0.415 |  |  |  |  |  |  |  |  |  |  |  |  | 
12 | EKVX | 0.412 | 0.437 | 0.444 | 0.458 | 0.472 | 0.747 | 0.631 | 0.739 | 0.718 | 0.824 | 0.883 | 1.22 | 0.811 | 1.02 | 0.693 | 0.613 | 0.797 | 0.664
13 | EMC-BAC-2 | 0.472 | 0.557 | 0.572 | 0.539 | 0.622 | 0.404 | 0.374 | 0.364 | 0.246 | 0.993 | 1.24 | 1.29 | 1.22 | 1.22 | 1.05 | 1 | 1.09 | 0.735
14 | EPLC-272H | 0.32 | 0.363 | 0.266 | 0.323 | 0.296 | 0.314 | 0.34 | 0.325 | 0.243 | 0.28 | 0.183 | 0.249 | 0.2 | 0.211 | 0.155 | 0.297 | 0.215 | 0.239
15 | H3255 | 0.479 | 0.503 | 0.45 | 0.519 | 0.588 | 0.525 | 0.591 |  | 0.498 | 0.859 | 1 | 1.05 | 0.896 | 1.04 | 0.949 | 0.791 | 1.11 | 0.823
16 | HARA | 0.276 | 0.47 | 0.332 | 0.485 | 0.449 | 0.633 | 0.361 | 0.744 | 0.483 | 0.707 | 0.939 | 0.486 | 0.75 | 0.802 | 0.382 |  | 0.368 | 0.262
17 | HCC-15 | 0.719 | 0.719 | 0.808 | 0.732 | 0.7 | 0.71 | 0.612 | 0.908 | 0.571 | 0.363 | 0.416 | 0.509 | 0.328 | 0.25 | 1.07 | 1.05 | 1.2 | 1.09
18 | HCC-44 | 0.697 | 0.625 | 0.693 | 0.66 | 0.671 | 0.723 | 0.403 | 0.66 | 0.477 | 1.09 | 1.12 | 1.54 | 0.968 | 0.948 | 1.02 | 1.05 | 1.02 | 1.01
19 | HCC-78 | 0.201 | 0.202 | 0.224 | 0.218 | 0.249 | 0.381 | 0.371 | 0.43 | 0.352 |  |  |  |  |  | 0.758 | 0.598 | 0.696 | 0.611
20 | HCC-366 | 0.157 | 0.208 | 0.205 | 0.143 | 0.164 | 0.955 | 0.848 | 1.08 | 0.718 |  |  |  |  |  | 0.392 | 0.229 | 0.332 | 0.281
21 | HCC-827 | 1.08 | 0.909 | 1.14 | 1.17 | 0.849 | 0.795 | 0.697 | 0.86 | 0.751 | 0.684 | 0.607 | 1.01 | 0.886 | 0.619 | 0.234 | 0.124 | 0.217 | 0.227
